Results: patent US20220041538A1, “CA[…] ACID AND SALTS THEREOF” (EMERALD HEALTH PHARMACEUTICALS INC, priority 2018, published 2022)
“Also recorded” adds a separate entry of the source. Where two headings read alike, the source gives them in different places.

Tests used:
[1] = system: 3NP-intoxicated mice; assay: 3NP murine model of Huntington's disease, behavioral score; assay type: in vivo; conditions: oral and intraperitoneal; I 10 mg/Kg both routes; sodium salt 30 mg/Kg oral, 10 mg/Kg i.p.
Description: Mice were subjected to behavioral tests for determining their neurological status after the treatment with oral cannabigerol quinone acid (I) (10 mg/Kg dissolved in sesame oil) and after intraperitoneal delivery (10 mg/Kg dissolved in ethanol/cremophor/saline). Hind limb clasping, Locomotor activity, and kyphosis were rated from 0 to 2 based on severity: a score of 0 typically indicates normal function and 2 seriously affected.
Mice were subjected to behavioral tests for determining their neurological status after the treatment with oral sodium salt of the cannabigerol quinone acid (30 mg/Kg dissolved saline) and after intraperitoneal delivery (10 mg/Kg dissolved in saline). Hind limb clasping, Locomotor activity, and kyphosis were rated from 0 to 2 based on severity: a score of 0 typically indicates normal function and 2 seriously affected. […]
Lesions of the striatum were induced with 3-NP in adult (16-week-old; 30 g) male C57BL/6 mice (Harlan Ibérica, Barcelona, Spain). […] We evaluated the general locomotor activity, the hindlimb clasping and dystonia, and the truncal dystonia. […]

[2] = system: IL-6; assay: Real-time quantitative PCR of striatum, 3NP model, IL-6; conditions: 3NP mice vs 3NP+Vehicle; I 10 mg/kg oral and i.p.; IIe 30 mg/kg oral, 10 mg/Kg i.p.
Description: (§1) Expression levels were calculated using the 2^−ΔΔCt method. Values are expressed as means±SEM for 3 animals per group.
(§2) Total RNA was isolated from striata (3NP model) using RNeasy Lipid Tissue Mini Kit (Qiagen, GmbH). The total amount of RNA extracted was quantitated by spectrometry at 260 nm and its purity from the ratio between the absorbance values at 260 and 280 nm. Genomic DNA was removed to eliminate DNA contamination. Single-stranded complementary DNA was synthesized from up to 1 μg of total RNA (pool from at least 3 animals per group) using iScript™ cDNA Synthesis Kit (Bio-Rad, Hercules, Calif., USA). The reaction mixture was kept frozen at −20° C. until enzymatic amplification. The iQ™ SYBR Green Supermix (Bio-Rad) was used to quantify mRNA levels for TNF-α and IL-6. Real-time PCR was performed using a CFX96 Real-Time PCR Detection System (Bio-Rad). The GAPDH housekeeping gene was used to standardize the mRNA expression levels in every sample. Expression levels were calculated using the 2^−ΔΔCt method.

[3] = system: TNFα; assay: Real-time quantitative PCR of striatum, 3NP model, TNFα; conditions: 3NP mice vs 3NP+Vehicle; I 10 mg/kg oral and i.p.; IIe 30 mg/kg oral, 10 mg/Kg i.p.
Description: as §1, §2

[4] = system: 6-OHDA challenged mice; assay: 6-OHDA murine model of Parkinson's disease (pole test, cylinder rearing test); assay type: in vivo; conditions: oral or intraperitoneal, 14 days
Description: C57BL/6 mice were unilaterally injected intracerebroventricullarly with 6-hydroxydopamine (6-OHDA) or saline (control mice) and subjected to chronic intraperitoneal treatment with cannabigerol quinone acid (1) (oral […] in sesame oil, and intraperitoneal 10 mg/Kg in Tween80/Saline ( 1/16)) or vehicle (14 days), starting 16 h after the 6-OHDA injection. SHAM group corresponds to mice subjected to the surgical manipulation without injection of 6-OHDA. Motor coordination was evaluated by rotarod performance and motor activity was evaluated using a computer-aided actimeter. A: pole test results after oral treatment, B: cylinder rearing test results after oral treatment, C: pole test results after intraperitoneal treatment, D: cylinder rearing test results after intraperitoneal treatment.
Motor coordination was evaluated by rotarod performance and motor activity was evaluated using a computer-aided actimeter. A: pole test results after oral treatment, B: cylinder rearing test results after oral treatment, C: pole test results after intraperitoneal treatment, D: cylinder rearing test results after intraperitoneal treatment.
C57BL/6 mice pretreated intracerebroventricularly were anesthetized with an intraperitoneal injection of 200 mg/Kg of 2,2,2-tribromoethanol (Sigma-Aldrich) and placed in a stereotaxic frame with a mouse adapter (David Kopf Instruments, Tujunga, Calif., USA). […]
The pole test was used to detect bradykinesia and motor and cylinder rearing test to evaluate sensory-motor deficits in PD mice. For Pole test mice were placed head-upward on the top of a vertical rough-surfaced pole (diameter 8 mm; height 55 cm) and the time until animals descended to the floor was recorded with a maximum duration of 90 s. […] For Cylinder Rearing Test (CRT) the initial forepaw (left, right, or both) preference after placing the mouse in a methacrylate transparent cylinder of 15.5 cm in diameter and 12.7 cm in height was measured. […]

[5] = biological target: T1, PPARγ (Homo sapiens, UniProt P37231); assay: PolarScreen PPAR Competitor Assay (PPARγ binding, fluorescence polarization)
T1 sequence (P37231 238-505 limits assumed): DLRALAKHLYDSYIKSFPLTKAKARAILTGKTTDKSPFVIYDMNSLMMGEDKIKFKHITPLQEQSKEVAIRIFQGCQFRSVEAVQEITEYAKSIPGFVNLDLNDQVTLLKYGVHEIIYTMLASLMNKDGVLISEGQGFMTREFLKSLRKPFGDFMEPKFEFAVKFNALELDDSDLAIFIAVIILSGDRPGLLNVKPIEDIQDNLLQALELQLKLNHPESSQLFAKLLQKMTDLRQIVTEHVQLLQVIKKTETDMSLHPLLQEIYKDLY
Description: PPARγ binding activity was determined by using PolarScreen™ PPAR Competitor Assay kit (Life Technologies), according to the manufacturer's specifications. The PolarScreen™ PPAR Competitor Assay is a binding assay for determining IC50 values of compounds that bind to PPARγ.
Concentration of the compound of formula I and salts of formula II resulting in a half maximal shifts in polarization value determines the IC50.

[6] = system: striatum of 3NP-intoxicated mice; assay: Histological analysis of striatum in 3NP model (Nissl staining, Iba-1 immunostaining); assay type: in vivo; conditions: oral and intraperitoneal
Excerpt: Loss of neurons in the striatum (Nissl staining) and Iba1 (microglia marker) were detected by immunostaining in the coronal sections of striatum of mice treated with vehicle, 3NP+ vehicle, 3NP+ compound I (oral and intraperitoneal). Quantification of Nissl staining (A) and Iba1 (B) positive cells in the mouse striatum. Total average number of neurons and microglia is shown.
Quantification of Nissl staining (A) and Iba1 (B) positive cells in the mouse striatum. Total average number of neurons and microglia is shown.
Brains from 3NP model were fixed in 4% paraformaldehyde and 5-μm-thick sections for Nissl staining and immunohistochemical analysis of Iba-1, a marker of microglial cells. For immunohistochemistry sections were incubated overnight at 4° C. with monoclonal anti-mouse Iba-1 antibody (Millipore, Mass., USA) used at 1/50 dilution. After incubation with the corresponding primary antibody, sections were washed in 0.1 M PBS and incubated O/N at 4° C. with goat anti-mouse (Millipore, Mass., USA) secondary antibody. […] Negative control sections were obtained using the same protocol with omission of the primary antibody. All sections for each immunohistochemical procedure were processed at the same time and under the same conditions. […]

[7] = system: Nrf2; conditions: cited from earlier work

Row | SMILES | clinical symptoms induced by 3-NP intoxication (behavioral score: hind limb clasping, locomotor activity, kyphosis) [1] | gene expression of IL-6 in striatum [2] | gene expression of TNFα in striatum [3] | bradykinesia (pole test) [4] | clinical symptoms in 6-OH-DA challenged mice [4] | motor deficit (cylinder rearing test) [4] | Remaining fluorescence polarization (%) ([5]; compound concentration 0.01 ∝M) | Remaining fluorescence polarization (%) ([5]; compound concentration 0.05 ∝M) | Remaining fluorescence polarization (%) ([5]; compound concentration 0.1 ∝M) | Remaining fluorescence polarization (%) ([5]; compound concentration 0.5 ∝M) | Remaining fluorescence polarization (%) ([5]; compound concentration 1 ∝M) | Remaining fluorescence polarization (%) ([5]; compound concentration 5 ∝M) | Remaining fluorescence polarization (%) ([5]; compound concentration 10 ∝M) | Remaining fluorescence polarization (%) ([5]; compound concentration 25 ∝M) | Remaining fluorescence polarization (%) ([5]; compound concentration 50 ∝M) | reactive microgliosis (Iba-1+ cells) [6] | striatal neurons (Nissl staining) against 3NP toxicity [6] | Nrf2 activation (electrophilic activity) [7] | Nrf2 activation (electrophilic activity) ([7]; listed as CBG-Q)
1 | CCCCCC1=C(C(=O)O)C(=O)C(C/C=C(\C)CCC=C(C)C)=C(O)C1=O [I, cannabigerol quinone acid] | clearly alleviates the clinical symptoms | down regulated; also recorded: attenuated the up-regulation | down regulated; also recorded: attenuated the up-regulation | attenuated | alleviates clinical symptoms | attenuated | 97.8 | 97.3 | 87.3 | 78.2 | 53.3 | 20.7 | 16.5 | 24.4 | 34.4 | prevented the induction of reactive microgliosis | preservation of striatal neurons |  | 
2 | CCCCCC1=CC(=O)C(C/C=C(\C)CCC=C(C)C)=C(O)C1=O [VCE-003, cannabigerol hydroxy-quinone] |  |  |  |  |  |  |  |  |  |  |  |  |  |  |  |  |  | electrophilic (Nrf2 activation) | activates the transcription factor Nrf2
